Test results: patent US20240024273A1, “TOPICAL ADMINISTRATION OF 2-(DIETHYLAMINO)ETHYL 2-(4-ISOBUTYLPHENYL)PROPRIONATE FOR TREATMENT OF DISEASES” (TECHFIELDS PHARMA CO., LTD., priority 2020, published 2024)

Test system: Mild to Moderate Osteoarthritis of the Knee
Assay: Phase 2 study: WOMAC (VAS) pain subscale score, target knee
Type: in vivo, human
Details: for Change of WOMAC pain score from baseline (±SEM) / Percentage of improvement from baseline, WOMAC pain score: all patients taken as active
From the text: This is a Phase 2, multicenter, randomized, double blind (within dose), placebo controlled, parallel group, proof of concept, and dose range finding study to evaluate the efficacy, safety, and PK of 2-(diethylamino)ethyl 2-(4-isobutylphenyl)propionate hydrochloride spray in adult subjects with clinically symptomatic mild to moderate OA of the knee. For subjects with bilateral knee pain, both knees will be treated, but the most symptomatic knee (i.e., the most painful knee as measured by the Western Ontario and McMaster University Osteoarthritis Index [WOMAC® 3.1] pain subscale score at Screening) will be designated as the target knee for efficacy analyses. For subjects with unilateral knee pain, only the symptomatic (target) knee will be treated.
After a Screening Period of up to 3 weeks and radiographic evaluation of the target knee joint space, a subject will be randomly assigned to 1 of 3 treatment groups in a 1:1:1 ratio with a 2:1 ratio of active:placebo within each treatment group (ie, 2 subjects to active treatment and 1 subject to placebo): • Group A: 8.75 mg 2-(diethylamino)ethyl 2-(4-isobutylphenyl)propionate/knee (2 sprays/knee, one spray to the medial surface and one spray to the lateral surface of the knee), twice daily (BID, approximately every 12 hours; n=50) or placebo (2 sprays/knee), BID (approximately every 12 hours; n=25) for a total of 4 sprays per knee per day; • Group B: 17.5 mg 2-(diethylamino)ethyl 2-(4-isobutylphenyl)propionate/knee (4 sprays/knee, one spray to the medial surface and one spray to the lateral surface of the knee, and one spray to front and one spray to the back of the knee), BID (approximately every 12 hours; n=50) or placebo (4 sprays/knee), BID (approximately every 12 hours; n=25) for a total of 8 sprays per knee per day; • Group C: 35 mg 2-(diethylamino)ethyl 2-(4-isobutylphenyl)propionate/knee (8 sprays/knee, each spray is to be applied to a different non-overlapping area around the knee, and the areas are to be uniformly distributed around the knee), BID (approximately every 12 hours; n=50) or placebo (8 sprays/knee), BID (approximately every 12 hours; n=25) for a total of 16 sprays per knee per day.
The VAS version of the WOMAC will be used for the Primary and Secondary Efficacy Endpoints. Efficacy endpoints will be assessed at Screening and Baseline (Day 1) and at the Week 2, Week 4, Week 8, and Week 12/EOS visits.
The Primary Efficacy Endpoint is the change from Baseline in the WOMAC (VAS) pain subscale score for the target knee at […] of treatment.
3.9.2. Secondary Efficacy Endpoints: • 1. Change from Baseline in the WOMAC (VAS) pain subscale score for the target knee at 2, 4, and 8 weeks of treatment; • 2. Change from Baseline in the WOMAC (VAS) stiffness subscale scores for the target knee and WOMAC (VAS) functional ability subscale scores at 2, 4, 8, and 12 weeks of treatment; • 3. Change from Baseline in the overall WOMAC (VAS) score at 2, 4, 8, and 12 weeks of treatment.
The Primary Efficacy Endpoint is change from Baseline in the WOMAC (VAS) pain subscale score for the target knee at 4 weeks of treatment, and will be analyzed using an analysis of covariance (ANCOVA). Treatment will be included as a fixed class effect and WOMAC Baseline pain subscale score as covariates. The primary comparisons of interest will be the difference between active Group A (8.75 mg 2-(diethylamino)ethyl 2-(4-isobutylphenyl)propionate/knee) and combined placebo, active Group B (17.5 mg 2-(diethylamino)ethyl 2-(4-isobutylphenyl)propionate/knee) and combined placebo, and active Group C (35 mg 2-(diethylamino)ethyl 2-(4-isobutylphenyl)propionate/knee) and combined placebo. […]

[1] = 8.75 mg/knee (BID), Follow up (week 13, day 91)
[2] = 8.75 mg/knee (BID), Week 2 (day 14)
[3] = 8.75 mg/knee (BID), Week 4 (day 28)
[4] = 8.75 mg/knee (BID), Week 8 (day 56)
[5] = 8.75 mg/knee (BID), Week 12 (day 84)
[6] = 17.5 mg/knee (BID), Follow up (week 13, day 91)
[7] = 17.5 mg/knee (BID), Week 2 (day 14)
[8] = 17.5 mg/knee (BID), Week 4 (day 28)
[9] = 17.5 mg/knee (BID), Week 8 (day 56)
[10] = 17.5 mg/knee (BID), Week 12 (day 84)
[11] = 35 mg/knee (BID), Follow up (week 13, day 91)
[12] = 35 mg/knee (BID), Week 2 (day 14)
[13] = 35 mg/knee (BID), Week 4 (day 28)
[14] = 35 mg/knee (BID), Week 8 (day 56)
[15] = 35 mg/knee (BID), Week 12 (day 84)

## CCN(CC)CCOC(=O)C(C)c1ccc(CC(C)C)cc1 (stereo not drawn) [2-(diethylamino)ethyl 2-(4-isobutylphenyl)propionate]
[1]
  Change of WOMAC pain score from baseline (±SEM), adjusted by […] of the testing drug amount: −34.5(±5.6) mm
  Percentage of improvement from baseline, WOMAC pain score, adjusted by […] of the testing drug amount: −57.6%
  Change of WOMAC pain score from baseline (±SEM): −20.1(±3.25) mm
  Percentage of improvement from baseline, WOMAC pain score: −33.6%
[2]
  Change of WOMAC pain score from baseline (±SEM), adjusted by […] of the testing drug amount: −19.2(±4.1) mm
  Percentage of improvement from baseline, WOMAC pain score, adjusted by […] of the testing drug amount: −32.1%
  Change of WOMAC pain score from baseline (±SEM): −11.2(±2.39) mm
  Percentage of improvement from baseline, WOMAC pain score: −18.7%
[3]
  Change of WOMAC pain score from baseline (±SEM), adjusted by […] of the testing drug amount: −29.2(±4.8) mm
  Percentage of improvement from baseline, WOMAC pain score, adjusted by […] of the testing drug amount: −48.7%
  Change of WOMAC pain score from baseline (±SEM): −17.0(±2.79) mm
  Percentage of improvement from baseline, WOMAC pain score: −28.4%
[4]
  Change of WOMAC pain score from baseline (±SEM), adjusted by […] of the testing drug amount: −36.7(±4.8) mm
  Percentage of improvement from baseline, WOMAC pain score, adjusted by […] of the testing drug amount: −61.4%
  Change of WOMAC pain score from baseline (±SEM): −21.4(±2.81) mm
  Percentage of improvement from baseline, WOMAC pain score: −35.8%
[5]
  Change of WOMAC pain score from baseline (±SEM), adjusted by […] of the testing drug amount: −37.0(±5.4) mm
  Percentage of improvement from baseline, WOMAC pain score, adjusted by […] of the testing drug amount: −61.9%
  Change of WOMAC pain score from baseline (±SEM): −21.6(±3.13) mm
  Percentage of improvement from baseline, WOMAC pain score: −36.1%
[6]
  Change of WOMAC pain score from baseline (±SEM), adjusted by […] of the testing drug amount: −37.9(±5.2) mm
  Percentage of improvement from baseline, WOMAC pain score, adjusted by […] of the testing drug amount: −62.1%
  Change of WOMAC pain score from baseline (±SEM): −22.1(±3.01) mm
  Percentage of improvement from baseline, WOMAC pain score: −36.2%
[7]
  Change of WOMAC pain score from baseline (±SEM), adjusted by […] of the testing drug amount: −25.7(±3.7) mm
  Percentage of improvement from baseline, WOMAC pain score, adjusted by […] of the testing drug amount: −42.2%
  Change of WOMAC pain score from baseline (±SEM): −15.0(±2.18) mm
  Percentage of improvement from baseline, WOMAC pain score: −24.6%
[8]
  Change of WOMAC pain score from baseline (±SEM), adjusted by […] of the testing drug amount: −35.2(±4.8) mm
  Percentage of improvement from baseline, WOMAC pain score, adjusted by […] of the testing drug amount: −57.6%
  Change of WOMAC pain score from baseline (±SEM): −20.5(±2.79) mm
  Percentage of improvement from baseline, WOMAC pain score: −33.6%
[9]
  Change of WOMAC pain score from baseline (±SEM), adjusted by […] of the testing drug amount: −43.1(±4.9) mm
  Percentage of improvement from baseline, WOMAC pain score, adjusted by […] of the testing drug amount: −70.5%
  Change of WOMAC pain score from baseline (±SEM): −25.1(±2.88) mm
  Percentage of improvement from baseline, WOMAC pain score: −41.1%
[10]
  Change of WOMAC pain score from baseline (±SEM), adjusted by […] of the testing drug amount: −45.5(±5.0) mm
  Percentage of improvement from baseline, WOMAC pain score, adjusted by […] of the testing drug amount: −74.4%
  Change of WOMAC pain score from baseline (±SEM): −26.5(±2.94) mm
  Percentage of improvement from baseline, WOMAC pain score: −43.4%
[11]
  Change of WOMAC pain score from baseline (±SEM), adjusted by […] of the testing drug amount: −41.2(±5.3) mm
  Percentage of improvement from baseline, WOMAC pain score, adjusted by […] of the testing drug amount: −69.5%
  Change of WOMAC pain score from baseline (±SEM): −24.0(±3.09) mm
  Percentage of improvement from baseline, WOMAC pain score: −40.5%
[12]
  Change of WOMAC pain score from baseline (±SEM), adjusted by […] of the testing drug amount: −21.6(±4.0) mm
  Percentage of improvement from baseline, WOMAC pain score, adjusted by […] of the testing drug amount: −36.5%
  Change of WOMAC pain score from baseline (±SEM): −12.6(±2.33) mm
  Percentage of improvement from baseline, WOMAC pain score: −21.3%
[13]
  Change of WOMAC pain score from baseline (±SEM), adjusted by […] of the testing drug amount: −30.4(±4.4) mm
  Percentage of improvement from baseline, WOMAC pain score, adjusted by […] of the testing drug amount: −51.2%
  Change of WOMAC pain score from baseline (±SEM): −17.7(±2.54) mm
  Percentage of improvement from baseline, WOMAC pain score: −29.9%
[14]
  Change of WOMAC pain score from baseline (±SEM), adjusted by […] of the testing drug amount: −38.1(±5.1) mm
  Percentage of improvement from baseline, WOMAC pain score, adjusted by […] of the testing drug amount: −64.3%
  Change of WOMAC pain score from baseline (±SEM): −22.2(±2.97) mm
  Percentage of improvement from baseline, WOMAC pain score: −37.5%
[15]
  Change of WOMAC pain score from baseline (±SEM), adjusted by […] of the testing drug amount: −43.6(±5.2) mm
  Percentage of improvement from baseline, WOMAC pain score, adjusted by […] of the testing drug amount: −73.6%
  Change of WOMAC pain score from baseline (±SEM): −25.4(±3.04) mm
  Percentage of improvement from baseline, WOMAC pain score: −42.9%
